How the values were obtained:
[1] = system: Oli-Neu cells, an oligodendrocyte progenitor cell (OPC) line; experiment: Cell cycle profile by propidium iodide staining and flow cytometry; type: cell-based, murine; settings: 0.25% GTA for 24 hours; Sato's medium; compared with GSCs
Protocol: Cell cycle profiles were visualized by propidium iodide (PI) staining as previously described (Perez-Martinez & Jaworski (2005) J Neurosci 25:4917-29). OG35, OG33 and mouse neural stem cells were grown in stem cell medium (SCM; DMEM/F12, B27, 20 ng/ml ea bFGF & EGF) while the oligodendrocyte progenitor cell line, Oli-neu (Jung et al. (1995) Eur J Neurosci 7:1245-65) was grown in Sato's medium (DMEM supplemented with 100 μg/ml apotransferrin, 5 μg/ml insulin, 60 nM triiodothyronine, 30 nM sodium selenite, 100 μM putrescine, 1% horse serum, and 25 μg/ml G418). […] after 0.25% (v/v) GTA treatment, cells were trypsinized, recovered by centrifugation, re-suspended (10^6 cells/ml) in a low-salt PI solution ([…] polyethylene glycol PEG 8000, […], 180 U/ml RNase A, 0.1% Triton X-100, and 4 mM sodium citrate), and incubated at 37° C. for 20 minutes. After addition of an equal volume of high-salt PI solution ([…] polyethylene glycol PEG 8000, […], 180 U/ml RNase A, 0.1% Triton X-100, and 400 mM NaCl) and incubation at 4° C. for 1 hour, cell cycle profiles were recorded by flow cytometry (BD LSR 11 Flow Cytometer, BD Biosciences; Franklin Lakes, N.J.).

OG33 cells = experiment: Immunocytochemistry after 5 days in differentiation medium with or without GTA; type: cell-based, human; settings: 0.25% GTA, 5 days in DM
Protocol: (§1) Immunocytochemistry was performed as described (Perez-Martinez & Jaworski (2005) J Neurosci 25:4917-29). Briefly, OG33 and OG35 cells were plated into differentiaion medium (DMEM, 10% FBS) in the absence or presence of 0.25% GAT and fixed with 2% paraformaldehyde after 5 days. Antibodies: rabbit anti-human ASPA (1500×; GTX13389; GeneTex, Irvine, Calif.), Rabbit anti-mouse ASPA (2,000× for western blot) (Madhavarao et al., 2004 Comp Neurol 472:318-29), rabbit anti-mouse AceCS1 (15,000× western blot; 1,500× immunocytochemistry) (Ariyannur et al. 2010 J Comp Neurol 518:2952-77), rabbit anti-mouse 2′,3′-cyclic nucleotide 3′-phosphodiesterase (CNPase; 500×sc-30158; Santa Cruz Biotechnology, Santa Cruz, Calif.). Cy3- (500×) conjugated secondary antibodies were obtained from Jackson ImmunoResearch (West Grove, Pa.). Immunocytochemistry for Histone 3/Tubulin/poly(ADP-ribose) polymerase (PARP) was performed using the PathScan Multiplex IF kit per manufacturer's instructions (Cell Signaling Technology, Danvers, Mass.).

OG35 cells = experiment: as above; type: cell-based, human; settings: 0.25% GTA, 5 days in DM
Protocol: as §1

[2] = system: OG35 oligodendroglioma GSCs; experiment: Orthotopic graft in athymic mice, survival and bioluminescent imaging; type: in vivo; settings: OG35 engrafted mice
Protocol: (§2) Cells (2,500 cells in 4 μl) were injected into the right striatum (1 mm anterior, 1.5 mm lateral to bregma, 3.5 mm deep) of adult athymic mice (8-week-old, 25-28 g). […]
(§3) For in vivo imaging, mice were injected i.p. with 150 mg/kg D-luciferin potassium salt 5 minutes prior to imaging under 1.5% inhaled isoflurane. Peak efflux was determined from an average of 15 bioluminescent acquisitions, with 1 min inter-acquisition intervals, using the auto-exposure setting. Total photon efflux was determined by drawing regions of interest over the emitted region and setting thresholds for each mouse to maximize the number of pixels encircled using Living Image acquisition and analysis software (Version 3.0.3.5, Caliper Life Sciences, Hopkinton, Mass.). […]
(§4) Tumor bioluminescence (rate of flux change over time) and tumor volume were compared using a Mann-Whitney test. Survival was analyzed using Kaplan-Meier curves [Kaplan, EL and P Meier. (1958) J Am Stat Assoc 53:457-481] and comparisons between groups were analyzed with a log-rank test [Peto, R and J Peto. […]

GBM12 astrocytoma GSCs = experiment: Orthotopic graft in athymic mice, survival; type: in vivo; settings: GBM 12 engrafted mice; GTA alone 5.8 g/kg daily; p<0.0001
Protocol: as §2, §3, §4

**Q.** Which results are given for `CC(=O)OCC(COC(C)=O)OC(C)=O` [GTA, glyceryltriacetate]?
**A.** Cell cycle arrest [1]: less effect; Apoptosis (cleaved PARP, Asp214) (OG33 cells): no cleaved PARP; Proliferation (phospho-histone H3 [Ser 10]) (OG33 cells): decreased phospho-histone H3; Apoptosis (cleaved PARP, Asp214) (OG35 cells; OG35): no cleaved PARP; Nuclear expression of ASPA (OG35 cells; OG35): increase the nuclear expression of ASPA; Proliferation (phospho-histone H3 [Ser 10]) (OG35 cells; OG35): decreased phospho-histone H3; GSC differentiation (expression of CNPase, a marker of mature oligodendrocytes) (OG35 cells; primarily in OG35 cells): increased expression of CNPase; Survival ([2]; GTA alone 5.8 g/kg intragastrically daily): did not significantly increase survival; Time to tumor regrowth after termination of TMZ treatment ([2]; GTA with TMZ, bioluminescent imaging): significantly delayed; Survival relative to vehicle treated mice (GBM12 astrocytoma GSCs): increased survival relative to vehicle treated mice

From patent publication US10765654B2, “Methods and compounds for treating cancer” (University of Vermont and State Agricultural College, priority 2011, dated 2020)
